The values that follow come from patent publication US11168073B2, “3,3-difluoroallylamines or salts thereof and pharmaceutical compositions comprising the same” (YUHAN CORPORATION, priority 2018, dated 2021).

Structures can show the parent of a compound that is named as a salt. Where two headings read alike, the source gives them in different places.

What all share (format): biochemical
The target in assay [1] is T1, recombinant human MAO-A (monoamine oxidase-A) (Homo sapiens, UniProt P21397).
T1 construct: purchased Sigma-Aldrich
T1 sequence (P21397 1-527): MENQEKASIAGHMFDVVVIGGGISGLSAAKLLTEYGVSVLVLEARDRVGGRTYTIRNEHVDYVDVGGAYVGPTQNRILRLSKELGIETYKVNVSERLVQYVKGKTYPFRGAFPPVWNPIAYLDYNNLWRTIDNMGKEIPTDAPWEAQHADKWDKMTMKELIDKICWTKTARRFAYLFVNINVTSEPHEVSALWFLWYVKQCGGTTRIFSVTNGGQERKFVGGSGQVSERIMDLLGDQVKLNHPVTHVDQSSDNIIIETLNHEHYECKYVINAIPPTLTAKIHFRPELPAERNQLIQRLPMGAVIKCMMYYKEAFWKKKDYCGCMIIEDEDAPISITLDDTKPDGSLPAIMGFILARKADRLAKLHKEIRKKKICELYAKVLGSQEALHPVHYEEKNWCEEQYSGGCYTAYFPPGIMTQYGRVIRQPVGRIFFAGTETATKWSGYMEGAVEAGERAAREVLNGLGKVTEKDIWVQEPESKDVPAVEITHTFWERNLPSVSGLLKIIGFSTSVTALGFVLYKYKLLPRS
Description: Activity evaluation on recombinant human MAO-A (Amplex Red/HRP-coupled assay, 0.5 mM tyramine substrate). Particulars: read-out: Inhibitory Activity (IC50, nM) MAO-A. The protocol:
(§1) The compounds according to the present technology were evaluated in terms of activity on recombinant human VAP-1 (R&D systems) by measuring the level of hydrogen peroxide in horseradish peroxidase (HRP)-coupled reaction using Amplex Red Hydrogen Peroxide Assay Kit (Molecular Probes, Invitrogen, USA). The experiment was carried out at room temperature using benzylamine as a substrate. In the HRP-coupled reaction, hydrogen peroxide oxidation of 10-acetyl-3,7-dihydroxyphenoxazine (Amplex Red reagent) produces resorufin, which is a highly fluorescent compound. Briefly, the test compound was dissolved in dimethyl sulfoxide (DMSO) at a concentration of 20 mM. The dose-response assessment was made by 1:3 serial dilution in DMSO, thereby creating a 8 point curve. The concentration of the upper part was controlled according to the efficacy of the compounds, followed by the dilution with a reaction buffer solution to obtain a final DMSO concentration of less than 1%. To each well of a 96 black well plate, human VAP-1 purified in 50 mM sodium phosphate buffer solution (pH7.4) was added. The test compounds dissolved in DMSO were incubated with the human VAP-1 enzymes at 37° C. for 30 minutes. After 30-minute incubation, each well was added with a reaction mixture containing 200 uM Amplex Red reagent prepared from 50 mM sodium phosphate buffer solution (pH 7.4), 1 mM benzylamine, and 1 U/mL HRP. Fluorescence intensity was measured at several time points during 1-2 hours using a microplate reader (Flexstation3, Molecular Devices) under the wavelength condition exciting at 544 nm and reading the emission at 590 nm. The inhibitory effect of the compounds was measured as a decrease (%) in the signal rate as compared to the control group without any inhibitor (only diluted DMSO). Data was fixed to a logistic model with four variables and IC50 value was calculated using GraphPad Prism program.
(§2) In addition, the compounds according to the present technology were evaluated in terms of activity on a recombinant human MAO-A (monoamine oxidase-A, Sigma-Aldrich) and a recombinant human MAO-B (monoamine oxidase-B, Sigma-Aldrich) by using as substrates, 0.5 mM tyramine and 1 mM benzylamine, respectively, with a method similar to the activity evaluation method for recombinant human VAP-1. The compounds according to the present technology were also evaluated in terms of activity on a recombinant human DAO (diamine oxidase, R&D systems) by using as a substrate 1 mM putrescine with a method similar to the activity evaluation method for recombinant human VAP-1.

The target of assay [2] is T2, recombinant human DAO (diamine oxidase) (Homo sapiens, UniProt P19801).
T2 construct: purchased R&D systems
T2 sequence (P19801 20-751): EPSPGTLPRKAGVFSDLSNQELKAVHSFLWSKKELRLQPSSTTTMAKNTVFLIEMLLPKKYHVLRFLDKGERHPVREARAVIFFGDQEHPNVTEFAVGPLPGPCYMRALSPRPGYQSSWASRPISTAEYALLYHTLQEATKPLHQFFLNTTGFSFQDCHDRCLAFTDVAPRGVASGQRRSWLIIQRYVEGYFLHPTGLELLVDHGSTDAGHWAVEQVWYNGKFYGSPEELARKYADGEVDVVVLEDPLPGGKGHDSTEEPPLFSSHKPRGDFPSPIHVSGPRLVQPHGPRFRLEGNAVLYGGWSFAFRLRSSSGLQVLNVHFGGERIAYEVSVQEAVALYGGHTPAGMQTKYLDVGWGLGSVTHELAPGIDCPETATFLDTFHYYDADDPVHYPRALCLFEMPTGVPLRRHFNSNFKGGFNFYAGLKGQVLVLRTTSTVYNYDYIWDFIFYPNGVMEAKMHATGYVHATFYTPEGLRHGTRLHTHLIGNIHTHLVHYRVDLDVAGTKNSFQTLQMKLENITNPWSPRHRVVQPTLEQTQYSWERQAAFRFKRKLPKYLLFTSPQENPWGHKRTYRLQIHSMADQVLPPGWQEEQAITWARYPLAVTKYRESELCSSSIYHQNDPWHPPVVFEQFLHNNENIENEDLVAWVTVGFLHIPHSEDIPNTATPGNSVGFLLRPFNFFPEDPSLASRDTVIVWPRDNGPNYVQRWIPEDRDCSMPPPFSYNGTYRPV
The assay can be described thus: Activity evaluation on recombinant human DAO (Amplex Red/HRP-coupled assay, 1 mM putrescine substrate). The settings on record: read-out: Inhibitory Activity (IC50, nM) DAO. As for the experimental part:
as §1, §2

The target in assay [3] is T3, recombinant human MAO-B (monoamine oxidase-B) (Homo sapiens, UniProt P27338).
T3 construct: purchased Sigma-Aldrich
T3 sequence (P27338 1-520): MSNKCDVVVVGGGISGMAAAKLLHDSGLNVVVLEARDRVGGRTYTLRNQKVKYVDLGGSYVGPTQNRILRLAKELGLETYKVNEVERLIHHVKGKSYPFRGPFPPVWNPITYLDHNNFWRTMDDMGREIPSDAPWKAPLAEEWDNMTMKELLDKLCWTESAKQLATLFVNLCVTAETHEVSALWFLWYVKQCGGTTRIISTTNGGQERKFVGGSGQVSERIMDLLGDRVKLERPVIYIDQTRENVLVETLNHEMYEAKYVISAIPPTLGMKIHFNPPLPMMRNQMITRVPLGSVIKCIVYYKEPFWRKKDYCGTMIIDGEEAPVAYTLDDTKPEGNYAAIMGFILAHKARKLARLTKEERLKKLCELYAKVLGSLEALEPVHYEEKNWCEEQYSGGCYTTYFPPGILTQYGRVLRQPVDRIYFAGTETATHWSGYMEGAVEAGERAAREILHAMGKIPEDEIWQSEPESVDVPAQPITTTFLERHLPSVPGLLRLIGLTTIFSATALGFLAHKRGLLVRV
The assay can be described thus: Activity evaluation on recombinant human MAO-B (Amplex Red/HRP-coupled assay, 1 mM benzylamine substrate). Particulars: read-out: Inhibitory Activity (IC50, nM) MAO-B. As for the experimental part:
as §1, §2

The target in the next assay is T4, recombinant human VAP-1 (Homo sapiens, UniProt Q16853).
T4 construct: purchased R&D systems
T4 sequence (Q16853 1-763): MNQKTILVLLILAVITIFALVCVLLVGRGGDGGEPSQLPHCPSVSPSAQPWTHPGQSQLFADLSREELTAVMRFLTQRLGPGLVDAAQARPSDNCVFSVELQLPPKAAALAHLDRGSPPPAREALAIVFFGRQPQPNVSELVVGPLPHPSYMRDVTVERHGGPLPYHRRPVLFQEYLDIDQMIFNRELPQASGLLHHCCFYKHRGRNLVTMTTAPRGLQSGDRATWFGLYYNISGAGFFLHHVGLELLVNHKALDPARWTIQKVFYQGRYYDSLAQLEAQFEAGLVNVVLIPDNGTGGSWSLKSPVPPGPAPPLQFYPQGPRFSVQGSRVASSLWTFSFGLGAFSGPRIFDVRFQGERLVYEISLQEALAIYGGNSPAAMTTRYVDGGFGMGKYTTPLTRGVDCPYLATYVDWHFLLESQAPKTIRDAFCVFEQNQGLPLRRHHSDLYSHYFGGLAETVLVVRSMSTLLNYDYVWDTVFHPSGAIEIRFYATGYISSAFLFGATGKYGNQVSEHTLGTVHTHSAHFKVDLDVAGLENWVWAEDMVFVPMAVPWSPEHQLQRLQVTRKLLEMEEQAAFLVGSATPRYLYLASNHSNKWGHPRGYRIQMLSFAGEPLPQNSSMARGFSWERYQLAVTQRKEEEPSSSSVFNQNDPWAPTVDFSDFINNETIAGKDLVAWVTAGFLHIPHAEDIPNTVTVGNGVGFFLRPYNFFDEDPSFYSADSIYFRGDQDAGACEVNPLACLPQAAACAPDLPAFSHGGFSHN
The assay can be described thus: Activity evaluation on recombinant human VAP-1 (Amplex Red/HRP-coupled hydrogen peroxide assay, benzylamine substrate). The settings on record: read-out: Inhibitory Activity (IC50, nM) human VAP-1. The protocol:
as §1

The mark [4] stands for this setting: recombinant human VAP-1, benzylamine substrate.
Setting [5] is: recombinant human VAP-1, 30 min preincubation at 37° C., 1 mM benzylamine.

What is called IC50 is the point on the concentration scale where inhibition reaches its midpoint. As to `Cc1cc(-c2cccc(-n3cnn(CC(CN)=C(F)F)c3=O)c2C)cc2c1NC(=O)CC2` [Example 258, 6-[3-[1-[2-(aminomethyl)-3,3-difluoro-allyl]-5-oxo-1,2,4-triazol-4-yl]-2-methyl-phenyl]-8-methyl-3,4-dihydro-1H-quinolin-2-one Trifluoroacetate], the IC50 was more than 100000 nM in assay [1] (0.5 mM tyramine substrate), more than 100000 nM in assay [2] (1 mM putrescine substrate), more than 100000 nM in assay [3] (1 mM benzylamine substrate) and 2.5 nM on recombinant human VAP-1 (setting [4]).

Turning to `NCC(Cn1ncn(-c2cccc(-c3ccc4c(c3)OCO4)n2)c1=O)=C(F)F` [Example 50, 2-[2-(aminomethyl)-3,3-difluoro-allyl]-4-[6-(1,3-benzodioxol-5-yl)-2-pyridyl]-1,2,4-triazol-3-one Trifluoroacetate], the IC50 is more than 100000 nM in assay [1] (0.5 mM tyramine), 1200 nM in assay [2] (1 mM putrescine), 13000 nM in assay [3] (1 mM benzylamine) and 1.5 nM on recombinant human VAP-1 (setting [5]).

For the compound `CCn1cc(-c2cccc(-c3cnc(-n4cnn(CC(CN)=C(F)F)c4=O)c(C)c3)c2)cn1` [Example 291, 2-[2-(aminomethyl)-3,3-difluoro-allyl]-4-[5-[3-(1-ethylpyrazol-4-yl)phenyl]-3-methyl-2-pyridyl]-1,2,4-triazol-3-one Trifluoroacetate], the IC50 in assay [1] (0.5 mM tyramine substrate) was more than 100000 nM; in assay [2] (1 mM putrescine substrate), 6160 nM; in assay [3] (1 mM benzylamine substrate), 3450 nM; at recombinant human VAP-1 (setting [4]) it was 0.6 nM.

Consider `CCn1cc(-c2cccc(Cn3cnn(CC(CN)=C(F)F)c3=O)c2)ccc1=O` [Example 277, 5-[3-[[1-[2-(aminomethyl)-3,3-difluoro-allyl]-5-oxo-1,2,4-triazol-4-yl]methyl]phenyl]-1-ethyl-pyridin-2-one Trifluoroacetate], for which the IC50 was more than 100000 nM in assay [1] (0.5 mM tyramine substrate), 1810 nM in assay [2] (1 mM putrescine substrate), 68600 nM in assay [3] (1 mM benzylamine substrate) and 2.5 nM on recombinant human VAP-1 (setting [4]).

With `COc1ccc(-c2ccc(Cn3cnn(CC(CN)=C(F)F)c3=O)s2)cn1` [Example 113, 2-[2-(aminomethyl)-3,3-difluoro-allyl]-4-[[5-(6-methoxy-3-pyridyl)-2-thienyl]methyl]-1,2,4-triazol-3-one Trifluoroacetate], the half-inhibitory concentration (IC50) in assay [1] (0.5 mM tyramine) was more than 100000 nM; in assay [2] (1 mM putrescine), 19000 nM; in assay [3] (1 mM benzylamine), 2700 nM; on recombinant human VAP-1 (setting [5]) it was 0.6 nM.

In the case of `NCC(Cn1ncn(Cc2cc3ccc(-c4ccc(N5CCNCC5)cc4)cc3s2)c1=O)=C(F)F` [Example 198, 2-[2-(aminomethyl)-3,3-difluoro-allyl]-4-[[6-(4-piperazin-1-ylphenyl)benzothiophen-2-yl]methyl]-1,2,4-triazol-3-one Ditrifluoroacetate], the IC50 in assay [1] (0.5 mM tyramine substrate) is more than 100000 nM; in assay [2] (1 mM putrescine substrate), 880 nM; in assay [3] (1 mM benzylamine substrate), 23000 nM; at recombinant human VAP-1 (setting [4]), 4.6 nM.

Take `NCC(Cn1ncn(-c2ccnc(Br)c2)c1=O)=C(F)F` [Example 10, 2-[2-(aminomethyl)-3,3-difluoro-allyl]-4-(2-bromo-4-pyridyl)-1,2,4-triazol-3-one Trifluoroacetate]: the IC50 was more than 100000 nM in assay [1] (0.5 mM tyramine), 1200 nM in assay [2] (1 mM putrescine), more than 100000 nM in assay [3] (1 mM benzylamine) and 7.7 nM at recombinant human VAP-1 (setting [5]).

In the case of `Cc1c(-c2ccc(S(C)(=O)=O)cc2)cccc1-n1cnn(CC(CN)=C(F)F)c1=O` [Example 253, 2-[2-(aminomethyl)-3,3-difluoro-allyl]-4-[2-methyl-3-(4-methylsulfonylphenyl)phenyl]-1,2,4-triazol-3-one Trifluoroacetate], the 50% inhibitory concentration (IC50) in assay [1] (0.5 mM tyramine substrate) is more than 100000 nM; in assay [2] (1 mM putrescine substrate), 8700 nM; in assay [3] (1 mM benzylamine substrate), more than 100000 nM; on recombinant human VAP-1 (setting [4]), 2.8 nM.

On to `Cc1cc(-c2ccc3c(c2)OCO3)sc1Cn1cnn(CC(CN)=C(F)F)c1=O` [Example 158, 2-[2-(aminomethyl)-3,3-difluoro-allyl]-4-[[5-(1,3-benzodioxol-5-yl)-3-methyl-2-thienyl]methyl]-1,2,4-triazol-3-one Trifluoroacetate], for which the IC50 is more than 100000 nM in assay [1] (0.5 mM tyramine), more than 100000 nM in assay [2] (1 mM putrescine), 3800 nM in assay [3] (1 mM benzylamine) and 7 nM on recombinant human VAP-1 (setting [5]).
